We go through eight molecules from paper PMC10443802, “Targeting a xenobiotic transporter to ameliorate vincristine-induced sensory neuropathy” (JCI Insight, 2023).

Series [1] relates to mice. As to conditions: cited from earlier work.
The next series relates to OATP1B-type transporters. Conditions: cited from earlier work.
In series [2] the target is T1, hOATP1B1 (Homo sapiens, UniProt Q9Y6L6).
T1 sequence (Q9Y6L6 1-691): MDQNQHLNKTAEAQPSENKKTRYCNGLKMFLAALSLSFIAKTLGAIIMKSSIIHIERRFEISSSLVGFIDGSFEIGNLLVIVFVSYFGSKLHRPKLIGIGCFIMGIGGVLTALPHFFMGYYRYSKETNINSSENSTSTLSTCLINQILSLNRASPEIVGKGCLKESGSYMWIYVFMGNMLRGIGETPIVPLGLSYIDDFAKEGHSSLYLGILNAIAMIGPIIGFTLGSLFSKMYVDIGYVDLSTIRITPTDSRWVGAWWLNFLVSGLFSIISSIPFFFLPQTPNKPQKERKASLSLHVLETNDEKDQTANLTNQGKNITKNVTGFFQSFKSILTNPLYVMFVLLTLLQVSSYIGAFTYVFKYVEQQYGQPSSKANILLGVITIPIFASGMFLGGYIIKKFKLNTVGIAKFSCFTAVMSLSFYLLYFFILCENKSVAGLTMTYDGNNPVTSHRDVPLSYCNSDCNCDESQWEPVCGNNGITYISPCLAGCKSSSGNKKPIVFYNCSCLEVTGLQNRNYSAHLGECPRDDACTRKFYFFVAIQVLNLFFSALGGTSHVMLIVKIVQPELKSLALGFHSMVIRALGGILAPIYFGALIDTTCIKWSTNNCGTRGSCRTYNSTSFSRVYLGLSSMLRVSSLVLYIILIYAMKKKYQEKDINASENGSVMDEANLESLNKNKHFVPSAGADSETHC
Nature of the series: Inhibition of vincristine uptake in HEK293 cells overexpressing hOATP1B1. As to conditions: inhibitor 15 min pre-treatment.

Series [3] concerns the target T1, hOATP1B1. Nature of the series: Inhibition of EβG uptake in HEK293 cells overexpressing hOATP1B1. Conditions: inhibitor 10 μM, 15-min pre-incubation.
In series [4] the target is T2, hOATP1B3 (Homo sapiens, UniProt Q9NPD5).
T2 sequence (Q9NPD5 1-702): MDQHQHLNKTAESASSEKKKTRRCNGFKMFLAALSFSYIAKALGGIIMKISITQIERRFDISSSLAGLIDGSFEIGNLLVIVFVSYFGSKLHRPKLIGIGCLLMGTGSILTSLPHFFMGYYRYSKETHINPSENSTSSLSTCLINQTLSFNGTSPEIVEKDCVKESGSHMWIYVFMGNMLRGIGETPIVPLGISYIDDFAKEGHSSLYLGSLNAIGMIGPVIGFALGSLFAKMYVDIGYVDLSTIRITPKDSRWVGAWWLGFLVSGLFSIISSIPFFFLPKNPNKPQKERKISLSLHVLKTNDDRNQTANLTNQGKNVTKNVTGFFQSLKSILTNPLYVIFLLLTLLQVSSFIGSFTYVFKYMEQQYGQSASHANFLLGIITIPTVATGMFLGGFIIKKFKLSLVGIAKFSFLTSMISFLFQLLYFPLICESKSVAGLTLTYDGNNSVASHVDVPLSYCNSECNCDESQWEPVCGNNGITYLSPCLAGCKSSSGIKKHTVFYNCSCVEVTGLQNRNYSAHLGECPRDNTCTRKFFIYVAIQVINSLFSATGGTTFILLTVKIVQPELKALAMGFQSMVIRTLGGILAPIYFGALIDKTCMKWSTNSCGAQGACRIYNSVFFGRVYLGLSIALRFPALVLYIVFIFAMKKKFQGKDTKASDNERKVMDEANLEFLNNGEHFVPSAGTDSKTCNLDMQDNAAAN
Nature of the series: Inhibition of vincristine uptake in HEK293 cells overexpressing hOATP1B3. As to conditions: inhibitor 15 min pre-treatment.

Series [5] deals with T3, mOATP1B2 (Mus musculus, UniProt Q9JJL3).
T3 sequence (Q9JJL3 1-689): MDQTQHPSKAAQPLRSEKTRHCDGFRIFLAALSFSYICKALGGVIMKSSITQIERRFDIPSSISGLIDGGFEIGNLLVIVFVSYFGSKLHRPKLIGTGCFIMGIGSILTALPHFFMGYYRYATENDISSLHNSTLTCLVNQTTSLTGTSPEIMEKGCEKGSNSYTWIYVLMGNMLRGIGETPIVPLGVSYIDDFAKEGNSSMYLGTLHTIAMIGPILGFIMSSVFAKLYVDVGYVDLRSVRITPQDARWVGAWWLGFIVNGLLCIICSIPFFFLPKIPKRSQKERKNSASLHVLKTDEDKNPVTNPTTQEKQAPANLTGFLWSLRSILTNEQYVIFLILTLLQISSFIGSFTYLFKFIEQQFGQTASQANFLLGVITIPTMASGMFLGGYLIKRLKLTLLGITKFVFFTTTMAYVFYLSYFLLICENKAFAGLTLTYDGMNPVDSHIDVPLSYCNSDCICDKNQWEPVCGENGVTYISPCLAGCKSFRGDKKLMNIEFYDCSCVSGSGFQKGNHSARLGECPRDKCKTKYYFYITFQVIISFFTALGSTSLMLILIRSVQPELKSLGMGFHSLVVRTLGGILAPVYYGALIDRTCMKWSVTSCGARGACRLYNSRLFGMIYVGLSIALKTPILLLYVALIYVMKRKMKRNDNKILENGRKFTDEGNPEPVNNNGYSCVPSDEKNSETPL
Kind of series: Inhibition of vincristine uptake in HEK293 cells overexpressing mOATP1B2. The series is classed as cell-based.

The target in series [6] is T3, mOATP1B2. Nature of the series: Inhibition of EβG uptake in HEK293 cells overexpressing mOATP1B2. The series is classed as cell-based.
Series [7] deals with T2, hOATP1B3. Nature of the series: Inhibition of EβG uptake in HEK293 cells overexpressing hOATP1B3. Conditions: HEK293 hOATP1B3; inhibitor 10 μM, 15-min pre-incubation.
The subject of another series is OATP1B2. Kind of series: Plasma level and DRG/plasma ratio of α-tocopherol in mice (biomarker of OATP1B2 function). The series is classed as in vivo, mouse.
The subject of series [8] is mice. Conditions: for Protection against treatment-related mechanical allodynia by OATP1B2 deficiency: mouse, in vivo.
Where [9] appears, read: mOATP1B2, in presence of alpha-tocopherol.

“And” between values parts separate entries of the source, which are not always exact repeats. Equal entries are not always repeated. Where two headings read alike, the source gives them in different places.

On to `OCCN(CCO)c1nc(N2CCCCC2)c2nc(N(CCO)CCO)nc(N3CCCCC3)c2n1` [Dipyridamole, dipyridamole], for which, in the series with mice [1], the “Protection against VIPN” value is given as “partially protected against VIPN in mice”. For the same molecule, in the series on OATP1B-type transporters, the “Inhibitory potency against OATP1B-type transporters” value is “moderate inhibitory potency”.

Regarding `CO[C@H]1/C=C/O[C@@]2(C)Oc3c(C)c(O)c4c(O)c(c(/C=N/N5CCN(C)CC5)c(O)c4c3C2=O)NC(=O)/C(C)=C\C=C\[C@H](C)[C@H](O)[C@@H](C)[C@@H](O)[C@@H](C)[C@H](OC(C)=O)[C@@H]1C` [Rifampicin, rifampicin], the “Vincristine uptake (% of vehicle)” value on hOATP1B1 [2] was 68.5513 % of vehicle and 91.3571 % of vehicle and 64.0921 % of vehicle; on hOATP1B3 [4], 68.0365 % of vehicle and 67.1426 % of vehicle and 57.6334 % of vehicle and 46.0272 % of vehicle and 55.4053 % of vehicle and 65.8991 % of vehicle; at mOATP1B2 [5] (HEK293 mOATP1B2, inhibitor 15 min pre-treatment), 69.4167 % of vehicle and 71.9856 % of vehicle and 78.1737 % of vehicle and 74.3324 % of vehicle and 63.8503 % of vehicle and 67.3213 % of vehicle. Further, the “EβG uptake (% of vehicle)” value at hOATP1B1 [3] is 26.1825 % of vehicle and 31.1005 % of vehicle and 27.1566 % of vehicle; on mOATP1B2 [6] (HEK293 mOATP1B2, inhibitor 10 μM, 15-min pre-incubation), 9.089 % of vehicle and 9.168 % of vehicle and 8.011 % of vehicle; at hOATP1B3 [7] it was 4.339 % of vehicle and 4.237 % of vehicle and 4.051 % of vehicle. Further, the “Level of α-tocopherol (% of wild-type baseline), DRG/Plasma Ratio” value in the series on OATP1B2 (WT mice treated with the inhibitor, DRG/plasma ratio, listed as Rifampin) is 27.9959% and 27.249% and 34.1971%. In addition, the “Level of α-tocopherol (% of wild-type baseline), Plasma” value in the series with OATP1B2 (WT mice treated with the inhibitor, plasma, listed as Rifampin) was 236.636% and 352.754% and 217.386%. In the series with OATP1B2 (WT mice, 2 hours after rifampin 20 mg/kg i.p.), the “Level of α-tocopherol (% of wild-type baseline), relative DRG/plasma ratio” value was 27.9959 % of wild-type baseline and 27.249 % of wild-type baseline and 34.1971 % of wild-type baseline. Moreover, the “Protective effect against VIPN (mechanical allodynia)” value in the series with mice [8] (rifampin pretreatment 20 mg/kg, single vincristine 1 mg/kg, wild-type mice) is reported as “could be replicated with pretreatment of orally administered rifampin”.

In the case of `Cc1c(C)c2c(c(C)c1O)CC[C@@](C)(CCC[C@H](C)CCC[C@H](C)CCCC(C)C)O2` [alpha-tocopherol], the “Vincristine uptake (% of vehicle)” value at mOATP1B2 [5] (setting [9]) is 51.7599% and 63.6149% and 58.7604%. The “EβG uptake (% of vehicle)” value at mOATP1B2 [6] (setting [9]) was 113.612% and 99.0126% and 119.375% and 118.704% and 95.6597% and 100.791%.

For the molecule `CCC1=C[C@@H]2CN(C1)Cc1c([nH]c3ccccc13)[C@@](C(=O)OC)(c1cc3c(cc1OC)N(C)[C@H]1[C@@](O)(C(=O)OC)[C@H](OC(C)=O)[C@]4(CC)C=CCN5CC[C@]31[C@@H]54)C2` [Vinorelbine, vinorelbine], in the series on mice [8] (DBA/1LacJ), the “Protection against treatment-related mechanical allodynia by OATP1B2 deficiency” value (shortened to “Protection … by OATP1B2 deficiency”) was “independently of OATP1B2”.

`C/C(=C\c1csc(C)n1)[C@@H]1C[C@@H]2O[C@]2(C)CCC[C@H](C)[C@H](O)[C@@H](C)C(=O)C(C)(C)[C@@H](O)CC(=O)N1` [Ixabepilone, ixabepilone]: in the series on mice [8] (DBA/1LacJ), the “Protection … by OATP1B2 deficiency” value is “independently of OATP1B2”.

`CC(=O)O[C@@]12CO[C@@H]1C[C@H](O)[C@@]1(C)C(=O)[C@H](O)C3=C(C)[C@@H](OC(=O)[C@H](O)[C@@H](NC(=O)OC(C)(C)C)c4ccccc4)C[C@@](O)([C@@H](OC(=O)c4ccccc4)[C@H]21)C3(C)C` [Docetaxel, docetaxel]: the “Protection … by OATP1B2 deficiency” value in the series with mice [8] (DBA/1LacJ) was “independently of OATP1B2”.

For `C=C1C[C@@H]2CC[C@@]34C[C@H]5O[C@H]6[C@@H](O3)[C@H]3O[C@H](CC[C@@H]3O[C@H]6[C@H]5O4)CC(=O)C[C@@H]3[C@@H](OC)[C@@H](C[C@H](O)CN)O[C@H]3C[C@H]3O[C@@H](CC[C@@H]1O2)C[C@@H](C)C3=C` [Eribulin, eribulin], in the series on mice [8] (DBA/1LacJ), the “Protection … by OATP1B2 deficiency” value is “independently of OATP1B2”.

As for `CC(=O)O[C@H]1C(=O)[C@@]2(C)[C@H]([C@H](OC(=O)c3ccccc3)[C@]3(O)C[C@H](OC(=O)[C@H](O)[C@@H](NC(=O)c4ccccc4)c4ccccc4)C(C)=C1C3(C)C)[C@]1(OC(C)=O)CO[C@@H]1C[C@@H]2O` [Paclitaxel, paclitaxel], the “Protection … by OATP1B2 deficiency” value in the series on mice [8] is recorded as “protection against treatment-related mechanical allodynia was only observed”.
